Results on five compounds are retold here after PMC2680146 (Chemical biology & drug design, 2008).

Data set [1] deals with yPFTase. As to the kind of experiment: yPFTase-catalyzed prenylation, product analysis by HPLC. Type of data set: biochemical, Saccharomyces cerevisiae. The note with it: FPP source pure FPP or photolysis product of 5 or 9.
The target of a further data set is rPFTase (Rattus norvegicus, UniProt Q02293+Q04631). As to the kind of experiment: X-ray crystallography of rPFTase:FPP:15 complex. The conditions noted are these: FPP bound in presence of 15 vs PDB 1KZO. Type of data set: binding.
A further data set has as its target PFTase. The note with it: literature comparison value; ref [46]; cited from earlier work.
For data set [2] the following is noted: λirrad 350 nm; ref [16]; cited from earlier work.
Data set [3] relates to yPFTase. As to the kind of experiment: yPFTase substrate studies, continuous fluorescence assay. The class given is biochemical, Saccharomyces cerevisiae.
The next data set is described as follows: Photolysis. Type of data set: physicochemical. The note with it: 300-400 nm light (λmax 350 nm).

“Also recorded” adds a separate entry of the source.

Sequence of rPFTase (Q02293 whole entry, one chain of several): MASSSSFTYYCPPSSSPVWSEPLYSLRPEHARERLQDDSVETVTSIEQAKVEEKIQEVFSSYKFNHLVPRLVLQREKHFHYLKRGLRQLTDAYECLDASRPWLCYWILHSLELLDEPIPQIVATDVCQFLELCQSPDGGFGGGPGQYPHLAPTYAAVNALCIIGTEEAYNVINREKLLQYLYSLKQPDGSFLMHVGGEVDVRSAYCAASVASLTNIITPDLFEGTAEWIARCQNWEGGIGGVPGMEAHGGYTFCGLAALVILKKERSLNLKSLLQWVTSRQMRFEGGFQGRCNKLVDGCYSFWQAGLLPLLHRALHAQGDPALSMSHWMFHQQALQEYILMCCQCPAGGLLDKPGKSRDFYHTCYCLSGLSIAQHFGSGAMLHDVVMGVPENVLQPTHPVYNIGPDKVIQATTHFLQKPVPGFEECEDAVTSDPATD

As for `CC(C)=CCC/C(C)=C/CC/C(C)=C/CO[P@@](=O)(O)OP(=O)(O)O` (stereo in doubt) [FPP, farnesyl diphosphate, reference compound], in the data set with yPFTase [1], the “prenylated product formed” value is given as “same prenylated product”. Besides, at rPFTase, the “rms deviation over all FPP atoms” value is 0.546 Å.
Turning to CVIM, at PFTase, the IC50 is 165 nM.
Regarding `COc1cc(C(C)OP(=O)(O)OP(=O)(O)OP(=O)(O)OC[C@H]2O[C@@H](n3cnc4c(N)ncnc43)[C@H](O)[C@@H]2O)c([N+](=O)[O-])cc1OC` (stereo partly shown) [DMNPE-ATP], in data set [2], the “Qu1 (quantum efficiency)” value is given as 0.07 mol·ein^-1 and the “Uncaging Rate” value was 18.0 s⁻¹.
In the case of `CC(C)=CCC/C(C)=C/CC/C(C)=C/COP(=O)(O)OP(=O)(O)OCc1ccccc1[N+](=O)[O-]` [Compound 5, β-(2-nitrobenzyl)farnesyl diphosphate], the “interference of photolysis byproducts with catalysis” value in the data set with yPFTase [3] (after irradiation) is listed as “do not interfere with catalysis in any way”. In addition, the “substrate behaviour” value with yPFTase [3] (prior to uncaging) is “better substrate than compound 9; also recorded: poor substrates for PFTase”. In the data set “Photolysis” (25 mM NH4HCO3), the “Qu1 (single-photon uncaging efficiency)” value is on record as 0.70. Also, the “photolysis product” value in the data set “Photolysis” (RP-HPLC) was “release of farnesyl diphosphate; also recorded: efficiently release FPP upon irradiation”. For the same compound, the “prenylated product formed” value with yPFTase [1] is given as “same prenylated product”.
Regarding `COc1cc(C(C)OP(=O)(O)OP(=O)(O)OC/C=C(\C)CC/C=C(\C)CCC=C(C)C)c([N+](=O)[O-])cc1OC` (stereo not drawn) [Compound 9, β-1-(4,5-dimethoxy-nitrophenyl)ethyl farnesyl diphosphate], in the data set on yPFTase [3] (prior to uncaging), the “rate of enzymatic prenylation relative to FPP” value was determined as 7.6% and the “substrate behaviour” value was “poorer substrate prior to uncaging; also recorded: poor substrates for PFTase”. Moreover, the “Qu1 (single-photon uncaging efficiency)” value in “Photolysis” (25 mM NH4HCO3) amounted to 0.08. Further, in the data set “Photolysis” (25 mM NH4HCO3, RP-HPLC, first-order kinetics), the “uncaging rate constant k” value is 0.12 min⁻¹. Besides, in the data set “Photolysis” (RP-HPLC), the “photolysis product” value is recorded as “release of farnesyl diphosphate; also recorded: efficiently release FPP upon irradiation”. Besides, the “prenylated product formed” value in the data set with yPFTase [1] is recorded as “same prenylated product”.
